# Data taken from article PMC6079014, “Calcium is an essential cofactor for metal efflux by the ferroportin transporter family” (Nature Communications, 2018).
# Read-outs that look alike come from different tables or passages of the source.
# Key:
# [1] = molecular target: wild type BbFpn (Bdellovibrio bacteriovorus, UniProt Q6MLJ0); assay: biochemical; type: binding, Bdellovibrio bacteriovorous
# [2] = molecular target: T1, human Fpn (Homo sapiens, UniProt Q9NP59); assay: Radiotracer metal efflux assay in Xenopus oocytes expressing human Fpn; type: cell-based; details: for Ability of other alkaline-earth metals to substitute for Ca2+ in activating 55Fe efflux: Ca2+-free media, 2 mM Sr or Ba plus 1 mM Mg2+, or 3 mM Mg2+; for Effect on 55Fe efflux of pharmacologically raising the cytosolic Ca2+ concentration: 1 µM ionomycin (IMN) or 2 µM thapsigargin (THG), media with 0.2% DMSO
# T1 construct: expressed in transfected cells; host or cells: Xenopus laevis oocytes injected with Fpn RNA
# T1 sequence (Q9NP59 1-571): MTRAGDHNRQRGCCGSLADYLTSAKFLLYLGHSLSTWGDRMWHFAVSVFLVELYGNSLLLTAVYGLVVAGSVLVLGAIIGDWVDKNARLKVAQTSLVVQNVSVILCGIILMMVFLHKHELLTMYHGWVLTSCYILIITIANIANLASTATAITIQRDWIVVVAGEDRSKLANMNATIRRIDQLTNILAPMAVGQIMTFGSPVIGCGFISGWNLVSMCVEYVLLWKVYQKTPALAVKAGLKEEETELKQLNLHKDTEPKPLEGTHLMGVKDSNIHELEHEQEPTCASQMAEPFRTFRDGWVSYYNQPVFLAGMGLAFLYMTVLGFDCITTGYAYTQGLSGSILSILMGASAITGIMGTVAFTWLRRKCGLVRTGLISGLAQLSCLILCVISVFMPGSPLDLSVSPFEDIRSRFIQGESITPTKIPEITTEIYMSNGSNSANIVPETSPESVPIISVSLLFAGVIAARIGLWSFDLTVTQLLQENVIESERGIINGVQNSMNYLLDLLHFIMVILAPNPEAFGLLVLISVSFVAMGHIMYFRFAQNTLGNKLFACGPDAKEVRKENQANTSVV
# Protocol: We performed laparotomy and ovariectomy on adult female Xenopus laevis frogs (Nasco, Fort Atkinson, WI) under 2-aminoethylbenzoate methanesulfonate anesthesia (0.2%, by immersion, to effect) following a protocol approved by the University of Cincinnati Institutional Animal Care and Use Committee. Ovarian tissue was isolated and treated for 3 h with […] collagenase A (Roche Diagnostics Corp., Indianapolis, IN) in calcium-free-modified Barths’ medium (MBM) of composition 88 mM NaCl, 1 mM KCl, 2.4 mM NaHCO3, 1.57 mM MgSO4, 0.66 mM NaNO3, 10 mM 4-(2-hydroxyethyl)-1-piperazineethanesulfonic acid (HEPES), buffered to pH 7.5 by using 2-amino-2-hydroxymethyl-propane-1,3-diol (Tris base). We isolated defolliculate stage V–VI oocytes stored at 17 °C in MBM of composition 88 mM NaCl, 1 mM KCl, 2.4 mM NaHCO3, 0.82 MgSO4, 0.75 mM CaCl2, 0.66 mM NaNO3, 10 mM HEPES, buffered to pH 7.5 by using Tris base, with 50 mg l^−1 ciprofloxacin. We expressed in Xenopus oocytes the 1A transcript form of human Fpn fused at its C-terminus with the enhanced green fluorescent protein (GFP) as described. Oocytes were injected with ∼50 ng of Fpn RNA and incubated for 4–6 days before being used in functional assays. Control oocytes were noninjected.
# We measured metal efflux from oocytes expressing Fpn by using a radiotracer assay. Radiochemicals ^55Fe, ^45Ca, ^57Co, ^65Zn were obtained from Perkin-Elmer Life Science Products (Boston, MA) and ^63Ni from the National Isotope Development Center (Oak Ridge, TN). We used ^55Fe (added as FeCl3) at final specific activity 0.4–2.0 GBq mg^−1, ^45Ca (added as CaCl2) at final specific activity 0.5–0.9 GBq mg^−1, ^57Co (added as CoCl2) at final specific activity 1.6 GBq mg^−1, ^65Zn (added as ZnCl2) at final specific activity 0.2 GBq mg^−1, and ^63Ni (added as NiCl2) at final specific activity 0.6 GBq mg^−1. Oocytes were injected with 50 nl of 5 μM metal radionuclide (*M) in vehicle of composition 250 mM KCl, 5 mM nitrilotriacetic acid, trisodium salt, buffered to pH 7.0 with ∼4 mM 2-(N-morpholino)ethanesulfonic acid (MES) (GFS Chemicals, Columbus, OH). After injection, oocytes were briefly stored in ice-cold MBM (for 1–5 min) prior to the start of the efflux assay.
# To initiate the efflux assay, we placed oocytes in standard efflux medium of composition 100 mM NaCl, 1 mM KCl, 2 mM CaCl2, 1 mM MgCl2, 0.5 mM bathophenanthroline disulfonic acid (BPS), 1 mM nitrilotriacetic acid (NTA) trisodium salt, 50 μg/ml apotransferrin (ApoTf) (R&D Systems Inc., Minneapolis, MN), buffered with 0–5 mM MES, and 0–5 mM N′,N′-diethylpiperazine to obtain pH 7.5, with the following exceptions. To prepare Ca^2+-free medium, we replaced 2 mM CaCl2 with 4 mM NaCl and added 1 mM ethylene glycol-bis(2-aminoethyl ether)-N,N,N′,N′-tetraacetic acid (EGTA). To prepare Mg^2+-free medium, we replaced […] MgCl2 with 4 mM NaCl and added 1 mM ethylenediaminetetraacetic acid (EDTA). To measure ^55Fe efflux as a function of extracellular [Ca^2+] over the range 0.1–20 mM Ca^2+ (Figs. 1c, 6b), we adjusted [NaCl] and [CaCl2] on a 2:1 molar basis without the addition of EGTA. Oocytes were then transferred individually in 200 µl of medium to flat-bottomed wells of a 96-well plate and incubated 30 min—within the linear phase of metal efflux[10] —at 23–27 °C with gentle rocking. To terminate efflux, we removed 150 µl of medium (0.75 × [N0–Nt]) from each well for liquid-scintillation counting in Ultima Gold liquid-scintillation cocktail (Perkin-Elmer, Waltham, MA). The corresponding oocytes were rinsed twice in ice-cold medium (without BPS), solubilized with 5% (w/v) sodium dodecyl sulfate, and counted (Nt). We fit our data for oocyte radiotracer content (N) over time (Eq. (1)) and obtained the first-order rate constant (k) for metal radionuclide (*M) efflux for individual oocytes. N0 and Nt are counts per min (cpm) in the oocyte at time = 0 and time = t, respectively.1 Nt=N0⋅exp(-k⋅t) […]
# [3] = molecular target: BbFpn D24A (Bdellovibrio bacteriovorus, UniProt Q6MLJ0, D24A); assay: Isothermal titration calorimetry, D24A BbFpn; type: binding, Bdellovibrio bacteriovorous
# Sequence of BbFpn D24A (Q6MLJ0 whole entry D24A): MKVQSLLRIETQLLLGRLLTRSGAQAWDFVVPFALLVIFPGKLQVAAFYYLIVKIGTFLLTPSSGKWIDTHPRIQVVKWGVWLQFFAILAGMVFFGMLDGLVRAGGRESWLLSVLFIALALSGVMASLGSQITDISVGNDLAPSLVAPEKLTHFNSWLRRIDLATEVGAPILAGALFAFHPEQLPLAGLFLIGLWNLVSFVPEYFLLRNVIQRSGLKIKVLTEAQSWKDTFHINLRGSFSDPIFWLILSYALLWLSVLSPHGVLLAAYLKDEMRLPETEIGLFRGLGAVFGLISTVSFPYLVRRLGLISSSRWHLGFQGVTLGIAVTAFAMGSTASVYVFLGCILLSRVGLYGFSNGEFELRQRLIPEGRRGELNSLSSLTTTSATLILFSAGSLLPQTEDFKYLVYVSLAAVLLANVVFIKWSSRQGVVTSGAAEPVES
# [4] = molecular target: BbFpn N196A (Bdellovibrio bacteriovorus, UniProt Q6MLJ0, N196A); assay: Isothermal titration calorimetry, N196A BbFpn; type: binding, Bdellovibrio bacteriovorous
# Sequence of BbFpn N196A (Q6MLJ0 whole entry N196A): as the sequence (Q6MLJ0 whole entry D24A) above, with A24D, N196A counted along it
# [5] = molecular target: BbFpn Q84E (Bdellovibrio bacteriovorus, UniProt Q6MLJ0, Q84E); assay: Isothermal titration calorimetry, Q84E BbFpn; type: binding, Bdellovibrio bacteriovorous
# Sequence of BbFpn Q84E (Q6MLJ0 whole entry Q84E): as the sequence (Q6MLJ0 whole entry D24A) above, with A24D, Q84E counted along it
# [6] = molecular target: BbFpn E203A (Bdellovibrio bacteriovorus, UniProt Q6MLJ0, E203A); assay: Isothermal titration calorimetry, E203A BbFpn; type: binding, Bdellovibrio bacteriovorous
# Sequence of BbFpn E203A (Q6MLJ0 whole entry E203A): as the sequence (Q6MLJ0 whole entry D24A) above, with A24D, E203A counted along it
# [7] = Supplementary Figs. 5 and 9, one experiment
# Sequence of wild type BbFpn (Q6MLJ0 whole entry): as the sequence (Q6MLJ0 whole entry D24A) above, with A24D counted along it
compound,measurement,setting,value
[K+] [K^+],Binding to wild type BbFpn by ITC (in words),[1],no observable binding
"[Mg+2] [Mg^2+, magnesium]",Ability of other alkaline-earth metals to substitute for Ca2+ in activating 55Fe efflux,[2],could not
same,Binding to wild type BbFpn by ITC (in words),[1]; same experimental conditions as for Ca2+,no observable binding
[Na+] [Na^+],Effect of extracellular Na+ replacement with choline on Fpn-mediated 55Fe efflux,[2]; presence or absence of 100 mM extracellular Na+,unaffected
"[Sr+2] [Sr^2+, strontium]",Ability of other alkaline-earth metals to substitute for Ca2+ in activating 55Fe efflux,[2],could partially substitute
same,Binding to D24A BbFpn by ITC (in words),[3],complete loss
same,Binding to N196A BbFpn by ITC (in words),[4],complete loss
same,Binding to Q84E BbFpn by ITC (in words),[5],no Ca^2+ or Sr^2+ binding
same,Binding to E203A BbFpn by ITC (in words),[6],complete loss
same,Kd,"[1]; 20 °C, 20 mM Tris pH 8, 50 mM NaCl, 0.004% LMNG, read-out: Kd (ITC)",4.6e-05 ± 3.3e-06 M
same,"-TΔS, ITC",[1]; [7],-19.2 kcal/mol
same,"N (sites), ITC",[1]; [7],0.478 ± 6.1e-2
same,"ΔG, ITC",[1]; [7],-5.83 kcal/mol
same,"ΔH, ITC",[1]; [7],13.4 ± 1.90 kcal/mol
same,Kd,"[1]; Supplementary Figs. 5 and 9, one experiment, read-out: KD (M), ITC",4.57e-05 M
[Ba+2] [barium],Ability of other alkaline-earth metals to substitute for Ca2+ in activating 55Fe efflux,[2],could not
"C[C@H](CCC(=O)O)C[C@H](C)C[C@H](C)C(=O)/C=C(\O)[C@H](C)C[C@H](C)C/C=C/[C@@H](C)[C@@H](O)[C@@H](C)[C@@H](O)C[C@@H]1CC[C@@](C)([C@H]2CC[C@@](C)([C@@H](C)O)O2)O1 [ionomycin, reference compound]",Effect on 55Fe efflux of pharmacologically raising the cytosolic Ca2+ concentration,[2],no effect
"C/C=C(/C)C(=O)O[C@H]1C(C)=C2[C@H]([C@@H]1OC(=O)CCCCCCC)[C@@](C)(OC(C)=O)C[C@H](OC(=O)CCC)[C@@]1(O)[C@H]2OC(=O)[C@@]1(C)O [thapsigargin, reference compound]",Effect on 55Fe efflux of pharmacologically raising the cytosolic Ca2+ concentration,[2],no effect
